# Measurements as given in patent EP3816157A1 (Guangxi Normal University, priority 2019, dated 2021).
# What was measured:
# Assay in all cases: MTT inhibition test against cell growth
# HeLa-229 = assay type: cell-based, human; conditions: cervical cancer cell HeLa-229, 48 hours
# Experimental: (§1) The test selected human ovarian cancer cell SK-OV-3, liver cancer cell Hep-G2, gastric cancer cell MGC-803, bladder cancer cell T-24, cervical cancer cell HeLa-229, human large cell lung cancer cell NCI-H460 and human normal liver cell HL-7702, and all the used cell lines were placed in an RPMI-1640 or high-sugar DMEM culture solution containing 1% penicillin-streptomycin and 10% newborn fetal calf serum and cultured in an incubator at 37 °C and 5% CO2. The growths of the cells were observed discontinuously by an inverted microscope, and the culture solution was replaced periodically or digestion subcultured with 0.25% trypsin according to actual situations. […] The compounds each were formulated into 20 µmol/L of a solution, DMSO is used as a cosolvent with a final concentration of ≤1%; at the concentration, the inhibition degrees of the compounds against the growth of tumor cells were tested. […] After the individual tumor cells were attached to the wall, the working solutions of the tested compounds were added, and each compound is provided with quintuple holes in parallel whilst a corresponding control group (with a culture solution only containing tumor cells and the same equivalent of DMSO but without the tested compounds) is provided. […] The following equitation was utilized: […]
# HepG-2 = assay type: cell-based, human
# Experimental: as §1
# MGC-803 = assay type: cell-based, human; conditions: gastric cancer cell MGC-803, 48 hours
# Experimental: as §1
# T-24 = assay type: cell-based, human; conditions: bladder cancer cell T-24, 48 hours
# Experimental: as §1
# HL-7702 = assay type: cell-based
# Experimental: as §1
# NCI-H460 = assay type: cell-based; conditions: human large cell lung cancer cell NCI-H460, 48 hours
# Experimental: as §1
# [1] = Homo sapiens, HepG2, liver cancer cell HepG-2, 48 hours
# [2] = L02, human normal liver cell HL-7702, 48 hours
IC50 (HeLa-229; Homo sapiens),IC50 (MGC-803; Homo sapiens),IC50 (NCI-H460),SMILES,IC50 (HepG-2; [1]),IC50 (T-24; Homo sapiens),IC50 (HL-7702; [2]),IC50 (HeLa-229),"IC50 (HepG-2; liver cancer cell HepG-2, 48 hours)",IC50 (MGC-803),IC50 (T-24),"IC50 (HL-7702; human normal liver cell HL-7702, 48 hours)"
10.5 ± 1.52 µM,9.48 ± 0.68 µM,14.5 ± 1.42 µM,O=S(=O)(O)c1ccc(N=Cc2c3ccccc3c(C=NNC3=NCCN3)c3ccccc23)cc1 [9-benzenesulfonic acid-10-imidazolylanthrahydrazone],12.7 ± 1.56 µM,10.7 ± 0.56 µM,11.3 ± 0.71 µM,,,,,
> 20 µM,18.8 ± 0.5 µM,16.1 ± 1.4 µM,O=Cc1c2ccccc2c(C=NNC2=NCCN2)c2ccccc12 [9-formyl-10-imidazolylanthrahydrazone],15.1 ± 1.69 µM,13.9 ± 1.46 µM,16.4 ± 2.78 µM,,,,,

SMILES,IC50 (HeLa-229; Homo sapiens),IC50 (MGC-803; Homo sapiens),IC50 (NCI-H460),IC50 (HepG-2; [1]),IC50 (T-24; Homo sapiens),IC50 (HL-7702; [2]),IC50 (HeLa-229),"IC50 (HepG-2; liver cancer cell HepG-2, 48 hours)",IC50 (MGC-803),IC50 (T-24),"IC50 (HL-7702; human normal liver cell HL-7702, 48 hours)"
N.N.[Cl][Pt][Cl] [cisplatin],,,18.3 ± 1.02 µM,,,,13.2 ± 2.74 µM,18.6 ± 0.78 µM,17.8 ± 2.5 µM,14.8 ± 2.74 µM,12.7 ± 1.27 µM
